Read-outs that look alike come from different tables or passages of the source.
Assays:
Type in all cases: cell-based, human
[1] = test system: HT-29 colon cancer cells; test: Cell growth inhibition (CellTiter-Glo ATP assay), HT-29 cells with wild-type Ras; details: Homo sapiens, HT-29
Description: (§1) This example illustrates cell growth assays employed in the present invention.
(§2) Normal rat kidney (NRK) and Ki-Ras transformed NRK cells (K-NRK) were obtained from ATCC, and were cultured according to supplier recommendations. CellTiter-Glo ATP cell growth assay reagents were obtained from Promega and used according to the manufacturer's protocol. Inhibitors of EGFR, Raf, and MEK were obtained from Selleck Chemicals. Cells were plated at a density of 5,000 cells per well in 96-well microplates or 1,250 cells per well in 384-well plates, and allowed to attach for at least 4 h. Test compounds were dissolved in dimethyl sulfoxide (DMSO), and this working stock was further diluted in growth medium for addition to cell cultures. Serial dilutions of the test compound were prepared in growth medium containing an equal amount of DMSO not exceeding 0.2% final concentration. Each compound concentration was tested in at least 3 separate samples per cell line. At the end of a 3-day treatment period, growth inhibition was analyzed using a bioluminescent assay of ATP concentration (Promega CellTiter-Glo) according to the manufacturer's protocol. Resulting luminescence was measured using the luminescence cartridge of the Molecular Devices Spectramax Paradigm microplate reader. Relative growth inhibition for each sample was determined by comparison with the values obtained for vehicle treated control samples. Growth inhibition values were plotted with the GraphPad Prism5 software using the 4-parameter logistic fit to obtain IC50 values, which corresponds to the growth inhibitory potency of the compound.
(§3) This example illustrates effects of exemplary compounds of the present invention on cancer cells having activated or mutated Ras compared to wild-type (WT) Ras. […] A549 lung cancer cells, which harbor a mutation in the K-Ras oncogene were treated for three days with the compounds.
(§4) Cells were seeded in 384-well plates and allowed to attach. Ten-fold serial dilutions of compounds were tested. Each compound concentration was tested in at least 3 separate samples per cell line.

[2] = test system: A549 lung cancer cells; test: Cell growth inhibition (CellTiter-Glo ATP assay), A549 cells with mutant K-Ras; details: for IC50: Homo sapiens, A549, 72 h, growth inhibition, three days treatment, K-Ras mutant lung cancer cells, read-out: A549 (Ras-activated) IC50; for Selectivity HT-29/A549: ratio IC50 HT-29 (WT Ras) / IC50 A549 (Ras-activated)
Description: This example illustrates cell growth assays employed in the present invention. Cells used in such assays included A-549, HT-29, MDA-MB-231, Colo-205, Caco2, HCT-116, SW-480, and DLD-1 human cancer cells obtained from the American Type Culture Collection (ATCC).
as §2, with “Human tumor cells were cultured using standard methods in RPMI-1640 growth medium supplemented with 5% fetal bovine serum (FBS). Normal” for “Normal”
as §3

[3] = test system: SW-480 cells; test: Cell growth inhibition (CellTiter-Glo), SW-480 colorectal cells with activated Ras; details: for IC50: Homo sapiens, SW480, growth inhibition, 384-well plates, Table 3, read-out: SW-480 (Ras Activated IC50); for Selectivity Caco-2/SW-480: ratio IC50 Caco-2 (WT Ras) / IC50 SW-480 (Ras activated)
Description: as §1, §2
The growth inhibitory activity of the compounds was tested using the CellTiter-Glo assay. Cells were seeded in 384-well plates and allowed to attach, then ten-fold serial dilutions of compounds were tested. Each concentration was tested in at least 3 separate samples per cell line.
as §4

[4] = test system: Caco-2 cells; test: Cell growth inhibition (CellTiter-Glo), Caco-2 colorectal cells with wild-type Ras; details: Homo sapiens, Caco-2; growth inhibition, 384-well plates, Table 3; read-out: Caco-2 (WT Ras) IC50
[5] = test system: HCT-116 colon tumor cells; test: Cell growth inhibition (CellTiter-Glo), HCT-116 colon tumor cells expressing mutant Ras; details: ratio IC50 HT-29 (WT Ras) / IC50 HCT-116 (mutant Ras), 5000 cells/well, 96-well plates
Description: This example illustrates cell growth assays employed in the present invention. […] Normal rat kidney (NRK) and Ki-Ras transformed NRK cells (K-NRK) were obtained from ATCC, and were cultured according to supplier recommendations. CellTiter-Glo ATP cell growth assay reagents were obtained from Promega and used according to the manufacturer's protocol. Inhibitors of EGFR, Raf, and MEK were obtained from Selleck Chemicals. Cells were plated at a density of 5,000 cells per well in 96-well microplates or 1,250 cells per well in 384-well plates, and allowed to attach for at least 4 h. Test compounds were dissolved in dimethyl sulfoxide (DMSO), and this working stock was further diluted in growth medium for addition to cell cultures. Serial dilutions of the test compound were prepared in growth medium containing an equal amount of DMSO not exceeding 0.2% final concentration. Each compound concentration was tested in at least 3 separate samples per cell line. At the end of a 3-day treatment period, growth inhibition was analyzed using a bioluminescent assay of ATP concentration (Promega CellTiter-Glo) according to the manufacturer's protocol. Resulting luminescence was measured using the luminescence cartridge of the Molecular Devices Spectramax Paradigm microplate reader. Relative growth inhibition for each sample was determined by comparison with the values obtained for vehicle treated control samples. […] This example illustrates use of well-established human colon tumor cell lines with widely divergent Ras activation status to determine selectivity values for exemplary compounds of the present invention. […] Cells were plated at 5000 cells/well in 96-well plates, and viable cell numbers were measured using the Cell Titer Glo ATP luminescence assay (Promega). […] Cells were seeded in 384-well plates and allowed to attach. Ten-fold serial dilutions of compounds were tested. Each compound concentration was tested in at least 3 separate samples per cell line.

[6] = growth inhibition, colon cancer cells with wild-type Ras, Table 2, read-out: HT-29 (WT Ras) IC50

| Compound | IC50 [1, 6] | IC50 [2] | IC50 [3] | IC50 [4] | IC50 ([1]; known Ras pathway inhibitors, 384-well plates, Table 4, read-out: HT-29 IC50) | Selectivity HT-29/A549 [2] | Selectivity Caco-2/SW-480 [3] | HT-29/HCT-116 selectivity values [5] |
| --- | --- | --- | --- | --- | --- | --- | --- | --- |
| COc1ccc2c(c1)C(CC(=O)NCc1ccco1)=C(C)/C2=C/c1cc(C)c(O)c(C)c1 [Compound 001, (Z)—N-(furan-2-ylmethyl)-2-(1-(4-hydroxy-3,5-dimethylbenzylidene)-5-methoxy-2-methyl-1H-inden-3-yl)acetamide] | 6280 nM | 716 nM | 435 nM | 1100 nM | – | 9 | 3 | – |
| COc1ccc2c(c1)C(CC(=O)Nc1cccnc1)=C(C)/C2=C/c1cc(OC)c(O)c(OC)c1 [Compound 004, (Z)-2-(1-(4-hydroxy-3,5-dimethoxybenzylidene)-5-methoxy-2-methyl-1H-inden-3-yl)-N-(pyridin-3-yl)acetamide] | 916 nM | 79 nM | 877 nM | 1600 nM | – | 12 | 2 | – |
| COc1cc(/C=C2/C(C)=C(CC(=O)NCc3ccco3)c3cc(F)ccc32)cc(OC)c1OC=O [Compound 002, (Z)-2-(5-fluoro-1-(4-formoxy-3,5-dimethoxybenzylidene)-2-methyl-1H-inden-3-yl)-N-(furan-2-ylmethyl)acetamide] | – | – | – | – | – | – | – | 112 |
| COc1cc(/C=C2/C(C)=C(CC(=O)NCc3ccco3)c3cc(F)ccc32)cc(OC)c1OS(C)(=O)=O [Compound 029, (Z)-2-(5-fluoro-1-(4-mesyloxy-3,5-dimethoxybenzylidene)-2-methyl-1H-inden-3-yl)-N-(furan-2-ylmethyl)acetamide] | – | – | – | – | – | – | – | 35 |
| COc1cc(/C=C2/C(C)=C(CC(=O)Nc3ccccc3)c3cc(F)ccc32)cc(OC)c1O [Compound 035, (Z)-2-(5-fluoro-1-(4-hydroxy-3,5-dimethoxybenzylidene)-2-methyl-1H-inden-3-yl)-N-phenylacetamide] | – | – | – | – | – | – | – | 31 |
| COc1cc(/C=C2/C(C)=C(CC(=O)NCc3ccccc3)c3cc(F)ccc32)cc(OC)c1O [Compound 015, (Z)—N-benzyl-2-(5-fluoro-1-(4-hydroxy-3,5-dimethoxybenzylidene)-2-methyl-1H-inden-3-yl)acetamide] | – | – | – | – | – | – | – | 80 |
| COc1ccc2c(c1)C(CC(=O)NCc1ccc[nH]1)=C(C)/C2=C/c1cc(OC)c(O)c(OC)c1 [Compound 022, (Z)—N-((1H-pyrrol-2-yl)methyl)-2-(1-(4-hydroxy-3,5-dimethoxybenzylidene)-5-methoxy-2-methyl-1H-inden-3-yl)acetamide] | – | – | – | – | – | – | – | 117 |
| COc1ccc2c(c1)C(CC(=O)NCCN(C)C)=C(C)/C2=C/c1cc(OC)c(O)c(OC)c1 [Compound 003, (Z)—N-(2-(dimethylamino)ethyl)-2-(1-(4-hydroxy-3,5-dimethoxybenzylidene)-5-methoxy-2-methyl-1H-inden-3-yl)acetamide] | 4120 nM | 3650 nM | – | – | – | 1 | – | – |
| COc1cc(/C=C2/C(C)=C(CC(=O)NCc3cccn3C)c3cc(F)ccc32)cc(OC)c1O [Compound 019, (Z)-2-(5-fluoro-1-(4-hydroxy-3,5-dimethoxybenzylidene)-2-methyl-1H-inden-3-yl)-N-((1-methyl-1H-pyrrol-2-yl)methyl)acetamide] | – | – | – | – | – | – | – | 188 |

Further lines, with some results ahead:

| IC50 [1, 6] | IC50 [2] | IC50 [3] | IC50 [4] | IC50 ([1]; known Ras pathway inhibitors, 384-well plates, Table 4, read-out: HT-29 IC50) | Compound | Selectivity HT-29/A549 [2] | Selectivity Caco-2/SW-480 [3] | HT-29/HCT-116 selectivity values [5] |
| --- | --- | --- | --- | --- | --- | --- | --- | --- |
| 900 nM | 170 nM | – | – | – | COc1ccc2c(c1)C(CC(=O)NCc1ccco1)=C(C)/C2=C/c1ccc(O)c(OC)c1 [Compound 012, (Z)—N-(furan-2-ylmethyl)-2-(1-(4-hydroxy-3-methoxybenzylidene)-5-methoxy-2-methyl-1H-inden-3-yl)acetamide] | 5 | – | – |
| 4830 nM | 353 nM | 223 nM | 2610 nM | – | COc1ccc2c(c1)C(CC(=O)NCc1cccnc1)=C(C)/C2=C/c1cc(OC)c(O)c(OC)c1 [Compound 009, (Z)-2-(1-(4-hydroxy-3,5-dimethoxybenzylidene)-5-methoxy-2-methyl-1H-inden-3-yl)-N-(pyridin-3-ylmethyl)acetamide] | 14 | 12 | – |
| 500 nM | 110 nM | – | – | – | COc1ccc2c(c1)C(CC(=O)NCc1ccco1)=C(C)/C2=C/c1cc(Cl)c(O)c(OC)c1 [Compound 014, (Z)-2-(1-(3-chloro-4-hydroxy-5-methoxybenzylidene)-5-methoxy-2-methyl-1H-inden-3-yl)-N-(furan-2-ylmethyl)acetamide] | 5 | – | – |
| 730 nM | 300 nM | – | – | – | COc1ccc2c(c1)C(CC(=O)NCc1ccco1)=C(C)/C2=C/c1cc(Br)c(O)c(OC)c1 [Compound 013, (Z)-2-(1-(3-bromo-4-hydroxy-5-methoxybenzylidene)-5-methoxy-2-methyl-1H-inden-3-yl)-N-(furan-2-ylmethyl)acetamide] | 2 | – | – |
| – | – | – | – | 23600 nM | OCCn1cc(-c2ccc3c(c2)CC/C3=N\O)c(-c2ccncc2)n1 [GDC0879, reference compound] | – | – | – |
| 1540 nM | 167 nM | 139 nM | 1330 nM | – | COc1cc2c(cc1OC)/C(=C\c1cc(OC)c(O)c(OC)c1)C(C)=C2CC(=O)NCc1ccco1 [Compound 008, (Z)—N-(furan-2-ylmethyl)-2-(1-(4-hydroxy-3,5-dimethoxybenzylidene)-5,6-dimethoxy-2-methyl-1H-inden-3-yl)acetamide] | 9 | 10 | – |
| 7190 nM | 5940 nM | – | – | – | COc1ccc2c(c1)C(CC(=O)NC1CCN(C)C1)=C(C)/C2=C/c1cc(OC)c(O)c(OC)c1 (stereo not shown) [Compound 005, (Z)-2-(1-(4-hydroxy-3,5-dimethoxybenzylidene)-5-methoxy-2-methyl-1H-inden-3-yl)-N-(1-methylpyrrolidin-3-yl)acetamide] | 1 | – | – |

Reference: US9931315B2, “Method of selectively inhibiting Ras-mediated tumor growth in humans” (ADT PHARMACEUTICALS, INC., priority 2014, dated 2018)
